Measured values published in patent US20230286973A1, “PROTEIN SECRETION INHIBITORS” (KEZAR LIFE SCIENCES, priority 2020, published 2023).

Assays:
[1] = tested on: HER3-ss+4aa/Gaussia Luciferase; assay: Dox-Induced Her3-ss-Gluc Assay; type: cell-based; details: 24 hr Dox induction; 293FRT/TO cells; read-out: 24 hr Dox Inducible Her3(ss + 4)Gluc 293FRT/TO: Mean IC50
Summary of the method: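 Reporter line: Flp-In 293 T-REx, T-REx-regulated HER3-ss+4aa fused to Gaussia luciferase. Compound co-added with doxycycline after overnight plating, 37° C., 5% CO2.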

[2] = Liver Microsome Stability Assay (rat); details: rat liver microsomes, with NADPH, 1.0 uM compound
Description: (§1) Stability of a compound was assessed in the presence of liver microsomes from various sources—mouse, rat, monkey and human liver microsomes. 1.0 uM compound, 0.4% DMSO in 0.1 M Potassium Phosphate with 1.0 mg/mL liver microsomes, were incubated at 37° C. with or without 1 mM NADPH. The samples were quenched at 0, and 30 minutes.

[3] = tested on: TNFα-FL/Gaussia Luciferase; assay: Dox Induced TNFα-FL-Gluc Assay; type: cell-based; details: for IC50: 24 hr Dox induction, 293FRT/TO cells, read-out: 24 hr Dox Inducible TNFaFLGluc 293FRT/TO: Mean IC50; for 24 hr Dox Inducible TNFaFLGluc 293FRT/TO: TNF/PD1: ratio of TNFaFLGluc IC50 to PD1ssGluc IC50
Summary of the method: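 Doxycycline-inducible Gaussia luciferase-tagged full-length TNFα (1-233) was expressed in stable Flp-In 293 T-REx cells. Compounds were co-added with doxycycline and incubated at 37 °C, 5% CO2.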

[4] = Liver Microsome Stability Assay (human); details: human liver microsomes, with NADPH, 1.0 uM compound
Description: as §1

[5] = tested on: IL-2-FL/Gaussia Luciferase; assay: Dox Induced IL2-FL-Gluc Assay; type: cell-based; details: for IC50: 24 hr Dox induction, 293FRT/TO cells, read-out: 24 hr Dox Inducible IL2FLGluc 293FRT/TO: Mean IC50; for 24 hr Dox Inducible IL2FLGluc 293FRT/TO: IL2/PD1: ratio of IL2FLGluc IC50 to PD1ssGluc IC50
Summary of the method: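 Doxycycline induces an IL-2(1-153)–Gaussia luciferase fusion in a stable Flp-In 293 T-REx line. Compound exposure runs alongside induction at 37° C.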

[6] = tested on: multiple myeloma cell line U266B1; assay: U266 Cell Viability Assay; type: cell-based, human; details: Homo sapiens, U-266, 48 h, U266B1 cells, Celltiter-Glo
Summary of the method: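 Viability is measured as luciferase signal from CellTiter-Glo following a 48-hour incubation with compound at 37° C. under 5% CO2. Where structures lack drawn stereochemistry, values refer to stereoisomer mixtures.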

[7] = tested on: multiple myeloma cell line NCI-H929; assay: H929 Cell Viability Assay; type: cell-based, human; details: Homo sapiens, NCI-H929, 48 h, NCI-H929 cells, Celltiter-Glo
Summary of the method: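 Viability is scored by CellTiter-Glo luminescence following a 48-hour treatment at 37° C. Data for structures shown without stereochemistry refer to stereoisomer mixtures.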

[8] = Liver Microsome Stability Assay (monkey); details: monkey liver microsomes, with NADPH, 1.0 uM compound
Description: as §1

[9] = tested on: PD1-ss+10aa/Gaussia Luciferase; assay: Dox-Induced PD1-ss-Gluc Assay; type: cell-based; details: 24 hr Dox induction; 293FRT/TO cells; read-out: 24 hr Dox Inducible PD1ssGluc 293FRT/TO: Mean IC50
Summary of the method: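 Flp-In 293 T-REx, stable line; Tet-regulated PD1-ss+10aa fused to Gaussia luciferase; plated day prior; cpd + doxycycline in DMSO/media; 37 °C, 5% CO2.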

[10] = Liver Microsome Stability Assay (mouse); details: mouse liver microsomes, with NADPH, 1.0 uM compound
Description: as §1

Row | IC50 [1] | Liver Microsome Stability (Multiple Species): Rat - % Remaining after 30 min w/NADPH [2] | IC50 [3] | Liver Microsome Stability (Multiple Species): Human - % Remaining after 30 min w/NADPH [4] | IC50 [5] | EC50 [6] | EC50 [7] | Liver Microsome Stability (Multiple Species): Monkey - % Remaining after 30 min w/NADPH [8] | IC50 [9] | Liver Microsome Stability (Multiple Species): Mouse - % Remaining after 30 min w/NADPH [10] | Compound | 24 hr Dox Inducible TNFaFLGluc 293FRT/TO: TNF/PD1 [3] | 24 hr Dox Inducible IL2FLGluc 293FRT/TO: IL2/PD1 [5]
1 | 322 nM | 64.6% | 2910 nM | 23.1% | 462 nM | 7280 nM | 4550 nM | 12.7% | 205 nM | 6% | O=C(Nc1nc([C@H]2CCCN2c2ccc(OC3CCNCC3F)cc2)cs1)c1cccn1Cc1ccnc(F)c1 (stereo partly drawn) [Compound A107, N-(4-((2R)-1-(4-((3-fluoropiperidin-4-yl)oxy)phenyl)pyrrolidin-2-yl)thiazol-2-yl)-1-((2-fluoropyridin-4-yl)methyl)-1H-pyrrole-2-carboxamide] | 14.2 | 2.3
2 | 72.9 nM | 39% | 283 nM | 13.2% | 71.2 nM | > 25000 nM | 1280 nM | 0.49% | 33.7 nM | 17% | CC(=O)N1CCC(Oc2ccc(N3CCC[C@@H]3c3csc(NC(=O)c4cccn4Cc4ccnc(F)c4)n3)cc2)C(F)C1 (stereo partly drawn) [Compound A108, N-(4-((2R)-1-(4-((1-acetyl-3-fluoropiperidin-4-yl)oxy)phenyl)pyrrolidin-2-yl)thiazol-2-yl)-1-((2-fluoropyridin-4-yl)methyl)-1H-pyrrole-2-carboxamide] | 8.39 | 2.1
3 | 39.2 nM | 55.6% | 302 nM | 13.8% | 90.7 nM | > 25000 nM | 1230 nM | 2.02% | 31 nM | 21% | O=C(Nc1nc([C@H]2CCCN2c2ccc(OC3CN(C(=O)C4CC4)C3)cc2)cs1)c1cccn1Cc1ccnc(F)c1 [Compound A109, (R)-N-(4-(1-(4-((1-(cyclopropanecarbonyl)azetidin-3-yl)oxy)phenyl)pyrrolidin-2-yl)thiazol-2-yl)-1-((2-fluoropyridin-4-yl)methyl)-1H-pyrrole-2-carboxamide] | 9.75 | 2.9
4 | 36.4 nM | 55.7% | 310 nM | 10.5% | 79.8 nM | > 25000 nM | 884 nM | 4.58% | 23.2 nM | 31.2% | O=C(Nc1nc([C@H]2CCCN2c2ccc(OC3CN(C(=O)CO)C3)cc2)cs1)c1cccn1Cc1ccnc(F)c1 [Compound A110, (R)-1-((2-fluoropyridin-4-yl)methyl)-N-(4-(1-(4-((1-(2-hydroxyacetyl)azetidin-3-yl)oxy)phenyl)pyrrolidin-2-yl)thiazol-2-yl)-1H-pyrrole-2-carboxamide] | 13.4 | 3.4

The next lines start with the molecule.

Row | Compound | IC50 [1] | Liver Microsome Stability (Multiple Species): Rat - % Remaining after 30 min w/NADPH [2] | IC50 [3] | Liver Microsome Stability (Multiple Species): Human - % Remaining after 30 min w/NADPH [4] | IC50 [5] | EC50 [6] | EC50 [7] | Liver Microsome Stability (Multiple Species): Monkey - % Remaining after 30 min w/NADPH [8] | IC50 [9] | Liver Microsome Stability (Multiple Species): Mouse - % Remaining after 30 min w/NADPH [10] | 24 hr Dox Inducible TNFaFLGluc 293FRT/TO: TNF/PD1 [3] | 24 hr Dox Inducible IL2FLGluc 293FRT/TO: IL2/PD1 [5]
5 | C[C@@H](O)c1ccc(N2CCC[C@@H]2c2csc(NC(=O)c3cccn3Cc3ccnc(F)c3)n2)cc1 [Compound A111, 1-((2-fluoropyridin-4-yl)methyl)-N-(4-((R)-1-(4-((R)-1-hydroxyethyl)phenyl)pyrrolidin-2-yl)thiazol-2-yl)-1H-pyrrole-2-carboxamide] | 13.6 nM | 7.97% | 94.5 nM | 2.78% | 16.3 nM | > 25000 nM | 422 nM | 3.48% | 7.92 nM | 12.7% | 11.9 | 2.1
6 | C[C@H](O)c1ccc(N2CCC[C@@H]2c2csc(NC(=O)c3cccn3Cc3ccnc(F)c3)n2)cc1 [Compound A112, 1-((2-fluoropyridin-4-yl)methyl)-N-(4-((R)-1-(4-((S)-1-hydroxyethyl)phenyl)pyrrolidin-2-yl)thiazol-2-yl)-1H-pyrrole-2-carboxamide] | 5.98 nM | 6.03% | 40 nM | 3.41% | 8.64 nM | > 25000 nM | 408 nM | 0.35% | 3.81 nM | 5.81% | 10.5 | 2.3
7 | O=C(Nc1nc([C@H]2CCCN2c2ccc(CO)cc2)cs1)c1cccn1Cc1ccnc(F)c1 [Compound A113, (R)-1-((2-fluoropyridin-4-yl)methyl)-N-(4-(1-(4-(hydroxymethyl)phenyl)pyrrolidin-2-yl)thiazol-2-yl)-1H-pyrrole-2-carboxamide] | 22.6 nM | 0.64% | 136 nM | 0.61% | 17.9 nM | > 25000 nM | 615 nM | 1.3% | 9.82 nM | 4.74% | 13.9 | 1.8
8 | O=C(Nc1nc([C@H]2CCCN2c2ccc(C3(O)CCC3)cc2)cs1)c1cccn1Cc1ccnc(F)c1 [Compound A114, (R)-1-((2-fluoropyridin-4-yl)methyl)-N-(4-(1-(4-(1-hydroxycyclobutyl)phenyl)pyrrolidin-2-yl)thiazol-2-yl)-1H-pyrrole-2-carboxamide] | 87.8 nM | 8.6% | 551 nM | 3.96% | 54.9 nM | > 25000 nM | 1020 nM | 0.43% | 36.1 nM | 13% | 15.2 | 1.5
9 | Cc1cc(C(=O)Nc2nc([C@H]3CCCN3c3ccccc3)cs2)n(Cc2ccncc2)c1 [Compound A115, (R)-4-methyl-N-(4-(1-phenylpyrrolidin-2-yl)thiazol-2-yl)-1-(pyridin-4-ylmethyl)-1H-pyrrole-2-carboxamide] | 89.3 nM | 9.02% | 587 nM | 14.6% | 122 nM | 7270 nM | 2000 nM | 3.2% | 41.5 nM | 3.39% | 14.1 | 2.9
